Laboratory results: article PMC5384220 (Nature Communications, 2017)

How the values were obtained:
FLAG-KDM4A1-1,064 = molecular target: T1, FLAG-KDM4A1-1,064 (Homo sapiens, UniProt O75164); assay: CETSA, FLAG-KDM4A in U2OS cells; assay type: cell-based; details: 0.5 μM, 20 h dosing, DMSO 47 °C
T1 construct: expressed in transfected cells; host or cells: U2OS
T1 sequence (O75164 1-1064): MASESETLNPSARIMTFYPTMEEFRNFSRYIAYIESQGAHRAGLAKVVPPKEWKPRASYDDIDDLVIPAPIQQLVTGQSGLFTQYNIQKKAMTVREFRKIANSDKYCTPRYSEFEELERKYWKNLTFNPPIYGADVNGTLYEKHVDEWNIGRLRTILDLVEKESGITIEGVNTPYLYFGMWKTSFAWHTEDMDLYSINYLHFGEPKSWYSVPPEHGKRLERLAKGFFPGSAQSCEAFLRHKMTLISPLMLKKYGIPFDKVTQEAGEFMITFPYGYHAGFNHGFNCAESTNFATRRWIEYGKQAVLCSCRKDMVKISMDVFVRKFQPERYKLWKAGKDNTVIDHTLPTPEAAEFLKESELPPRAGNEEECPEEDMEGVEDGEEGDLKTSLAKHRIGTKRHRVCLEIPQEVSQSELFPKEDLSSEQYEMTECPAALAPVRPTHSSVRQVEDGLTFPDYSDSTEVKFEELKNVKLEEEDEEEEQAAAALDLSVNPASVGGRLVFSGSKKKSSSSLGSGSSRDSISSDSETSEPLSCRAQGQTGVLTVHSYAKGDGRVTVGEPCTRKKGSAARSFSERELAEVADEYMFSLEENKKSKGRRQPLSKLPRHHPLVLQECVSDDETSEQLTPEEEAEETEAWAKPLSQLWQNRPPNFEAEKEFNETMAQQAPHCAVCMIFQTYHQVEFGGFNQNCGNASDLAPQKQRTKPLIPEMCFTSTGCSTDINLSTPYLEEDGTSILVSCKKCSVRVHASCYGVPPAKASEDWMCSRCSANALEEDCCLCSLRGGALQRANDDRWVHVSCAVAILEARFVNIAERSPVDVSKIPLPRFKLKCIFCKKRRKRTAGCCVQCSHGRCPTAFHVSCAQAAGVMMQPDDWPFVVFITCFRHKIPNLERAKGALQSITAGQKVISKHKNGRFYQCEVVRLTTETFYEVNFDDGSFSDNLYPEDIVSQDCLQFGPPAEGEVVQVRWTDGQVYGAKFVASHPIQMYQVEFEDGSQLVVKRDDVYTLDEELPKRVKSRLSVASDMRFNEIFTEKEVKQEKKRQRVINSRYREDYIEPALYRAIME
Description: Control cells were dosed only with DMSO.

actin = details: U2OS cells, 0.5 μM; same for treated and untreated cells
Description: For CETSA melting curve experiments, 80% confluent U2OS cells in a 75 cm^2 flask were transfected with a plasmid encoding full-length Flag-tagged KDM4A1–1,064 (ref. [15]) or KDM4E1–506 (ref. [20]) using Lipofectamine 2000 (Thermo Scientific) and incubated for 4 h. The cells were washed with PBS buffer and media replaced with fresh DMEM with 10% FBS, supplemented with cyclic peptides in DMSO (0.1% DMSO final). Cell dosing was carried out for 20 h at 37 °C. Control cells were dosed only with DMSO. The cells were trypsinized and washed thrice with PBS, by centrifugation (300 g, 3 min, 4 °C). Cells were re-suspended in PBS supplemented with Complete Protease inhibitor cocktail (Sigma) and divided into 8–10 aliquots (100 μl) containing equal cell numbers in PCR tubes. […]
The samples (supernatant) were run on SDS–PAGE (NuPage Novex Bis-Tris 4–12% polyacrylamide gels with NuPAGE MES SDS running buffer (Thermo Scientific)) and transferred onto nitrocellulose membranes using either the iBlot blotting system. FLAG-KDM4A levels were determined by immunoblotting using a monoclonal mouse anti-FLAG primary antibody (F1804, Sigma), at a dilution of 1: 1,000 in PBS-T buffer containing Seablock Reagent Salmon Plasma (2% v/v, Calbiochem). […] Western blotting band intensities were quantified using Image Studio Ver. […]

FLAG-KDM4E = molecular target: T2, FLAG-KDM4E (Homo sapiens, UniProt B2RXH2); assay: CETSA, FLAG-KDM4E in U2OS cells; assay type: cell-based; details: 0.5 µM
T2 construct: expressed in transfected cells; host or cells: U2OS
T2 sequence (B2RXH2 1-506): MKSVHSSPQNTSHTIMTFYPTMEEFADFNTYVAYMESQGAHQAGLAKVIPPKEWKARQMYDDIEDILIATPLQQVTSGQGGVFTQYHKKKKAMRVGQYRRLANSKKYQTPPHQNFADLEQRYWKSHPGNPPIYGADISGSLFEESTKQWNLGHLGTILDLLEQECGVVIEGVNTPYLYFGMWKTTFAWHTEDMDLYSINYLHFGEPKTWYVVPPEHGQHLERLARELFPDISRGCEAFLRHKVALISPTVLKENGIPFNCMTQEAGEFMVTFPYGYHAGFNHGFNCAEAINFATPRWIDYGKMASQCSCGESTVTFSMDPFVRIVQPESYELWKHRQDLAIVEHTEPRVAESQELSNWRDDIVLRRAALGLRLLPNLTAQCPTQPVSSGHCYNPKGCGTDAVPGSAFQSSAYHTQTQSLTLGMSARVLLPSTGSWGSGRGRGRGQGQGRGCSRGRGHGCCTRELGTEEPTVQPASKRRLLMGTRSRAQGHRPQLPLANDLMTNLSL
Description: For CETSA melting curve experiments, 80% confluent U2OS cells in a 75 cm^2 flask were transfected with a plasmid encoding full-length Flag-tagged KDM4A1–1,064 (ref. [15]) or KDM4E1–506 (ref. [20]) using Lipofectamine 2000 (Thermo Scientific) and incubated for 4 h. The cells were washed with PBS buffer and media replaced with fresh DMEM with 10% FBS, supplemented with cyclic peptides in DMSO (0.1% DMSO final). Cell dosing was carried out for 20 h at 37 °C. Control cells were dosed only with DMSO. The cells were trypsinized and washed thrice with PBS, by centrifugation (300 g, 3 min, 4 °C). Cells were re-suspended in PBS supplemented with Complete Protease inhibitor cocktail (Sigma) and divided into 8–10 aliquots (100 μl) containing equal cell numbers in PCR tubes. For ITDRF CETSA experiments, approximately 6 × 10^6 cells were seeded evenly into nine 25 cm^2 flask and adhered before transfection. After 4 h of incubation, the cells were washed with PBS buffer and the media replaced with fresh DMEM with 10% FBS supplemented with cyclic peptides at a final concentration between 0 and 4,000 nM (0.1% DMSO final). Cells were trypsinized and washed thrice with PBS using centrifugation (300 g, 3 min, 4 °C). Cells were re-suspended in PBS supplemented with protease inhibitor cocktail (Sigma), aliquots (100 μl) containing equal cell numbers in PCR tubes were prepared. […] For ITDRF, tubes were incubated at approximately the Tm of the proteins of interest as determined by CETSA melting curve experiments, for example, 55 °C (Tm for actin) for 3 min, followed by room temperature for 3 min. […]
The samples (supernatant) were run on SDS–PAGE (NuPage Novex Bis-Tris 4–12% polyacrylamide gels with NuPAGE MES SDS running buffer (Thermo Scientific)) and transferred onto nitrocellulose membranes using either the iBlot blotting system. FLAG-KDM4A levels were determined by immunoblotting using a monoclonal mouse anti-FLAG primary antibody (F1804, Sigma), at a dilution of 1: 1,000 in PBS-T buffer containing Seablock Reagent Salmon Plasma (2% v/v, Calbiochem). […]

Sequence: DYVYNTRSGWRWYZC [T13Z]
- CETSA melting temperature (Tm) of FLAG-KDM4A (FLAG-KDM4A1-1,064): 59 °C
- CETSA actin Tm (actin): 55 °C
- CETSA stabilization / Tm shift of FLAG-KDM4E (FLAG-KDM4E): No significant changes in the Tm shift
